In the supplement of paper PMC10307832:

Legend:
Assay in all cases: relative viability (nuclei count vs DMSO), 5 days (fraction); higher = more cells survive
RERF-LC-KJ = system: RERF-LC-KJ
Procedure, shortened: (§1)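 Relative viability was taken as the ratio of nuclei in treated wells to nuclei in vehicle wells. Lung cancer cell lines in 1536-well plates received compounds by pin tool one day after seeding, either one drug alone or a fixed anchor-drug dose plus five library-drug doses (not always all listed) in √10 steps. Nuclei were counted on 4× images after 5 days of treatment, and values are medians of duplicate plates.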

A549 = system: A549
Procedure, shortened: as §1

NCI-H1703 = system: NCI-H1703
Procedure, shortened: as §1

NCI-H1299 = system: NCI-H1299
Procedure, shortened: as §1

EBC-1 = system: EBC-1
Procedure, shortened: as §1

NCI-H520 = system: NCI-H520
Procedure, shortened: as §1

IA-LM = system: IA-LM
Procedure, shortened: as §1

NCI-H1651 = system: NCI-H1651
Procedure, shortened: as §1

Calu-6 = system: Calu-6
Procedure, shortened: as §1

## C=C1C(=O)O[C@@H](CCCCCCCC)[C@@H]1C(=O)O [C-75] + CS(=O)(=O)N1CCN(Cc2cc3nc(-c4cccc5[nH]ncc45)nc(N4CCOCC4)c3s2)CC1 [Pictilisib] (partner 1 µM)
RERF-LC-KJ; first compound 0.08 µM
  relative viability: 0.564
RERF-LC-KJ; first compound 0.253 µM
  relative viability: 0.528
RERF-LC-KJ; first compound 0.8 µM
  relative viability: 0.625
RERF-LC-KJ; first compound 2.53 µM
  relative viability: 0.537
RERF-LC-KJ; first compound 8 µM
  relative viability: 0.533
A549; first compound 0.08 µM
  relative viability: 0.475
A549; first compound 0.253 µM
  relative viability: 0.571
A549; first compound 0.8 µM
  relative viability: 0.514
A549; first compound 2.53 µM
  relative viability: 0.309
A549; first compound 8 µM
  relative viability: 0.497
NCI-H1703; first compound 0.08 µM
  relative viability: 0.247
NCI-H1703; first compound 0.253 µM
  relative viability: 0.266
NCI-H1703; first compound 0.8 µM
  relative viability: 0.235
NCI-H1703; first compound 2.53 µM
  relative viability: 0.214
NCI-H1703; first compound 8 µM
  relative viability: 0.249
NCI-H1299; first compound 0.08 µM
  relative viability: 0.785
NCI-H1299; first compound 0.253 µM
  relative viability: 0.825
NCI-H1299; first compound 0.8 µM
  relative viability: 0.737
NCI-H1299; first compound 2.53 µM
  relative viability: 0.826
NCI-H1299; first compound 8 µM
  relative viability: 0.634
EBC-1; first compound 0.08 µM
  relative viability: 0.43
EBC-1; first compound 0.253 µM
  relative viability: 0.355
EBC-1; first compound 0.8 µM
  relative viability: 0.315
EBC-1; first compound 2.53 µM
  relative viability: 0.361
EBC-1; first compound 8 µM
  relative viability: 0.179
NCI-H520; first compound 0.08 µM
  relative viability: 0.24
NCI-H520; first compound 0.253 µM
  relative viability: 0.357
NCI-H520; first compound 0.8 µM
  relative viability: 0.309
NCI-H520; first compound 2.53 µM
  relative viability: 0.224
NCI-H520; first compound 8 µM
  relative viability: 0.297
IA-LM; first compound 0.08 µM
  relative viability: 0.448
IA-LM; first compound 0.253 µM
  relative viability: 0.294
IA-LM; first compound 0.8 µM
  relative viability: 0.266
IA-LM; first compound 2.53 µM
  relative viability: 0.358
IA-LM; first compound 8 µM
  relative viability: 0.375
NCI-H1651; first compound 0.08 µM
  relative viability: 0.466
NCI-H1651; first compound 0.253 µM
  relative viability: 0.633
NCI-H1651; first compound 0.8 µM
  relative viability: 0.499
NCI-H1651; first compound 2.53 µM
  relative viability: 1.04
NCI-H1651; first compound 8 µM
  relative viability: 0.501
Calu-6; first compound 0.08 µM
  relative viability: 0.985
Calu-6; first compound 0.253 µM
  relative viability: 1.07
Calu-6; first compound 0.8 µM
  relative viability: 0.811
Calu-6; first compound 2.53 µM
  relative viability: 0.714
Calu-6; first compound 8 µM
  relative viability: 0.817

## C=C1C(=O)O[C@@H](CCCCCCCC)[C@@H]1C(=O)O [C-75] + C[C@@H](Oc1cc(-c2cnn(C3CCNCC3)c2)cnc1N)c1c(Cl)ccc(F)c1Cl [Crizotinib] (partner 1 µM)
RERF-LC-KJ; first compound 0.08 µM
  relative viability: 0.881
RERF-LC-KJ; first compound 0.253 µM
  relative viability: 0.846
RERF-LC-KJ; first compound 0.8 µM
  relative viability: 0.815
RERF-LC-KJ; first compound 2.53 µM
  relative viability: 0.704
RERF-LC-KJ; first compound 8 µM
  relative viability: 0.86
A549; first compound 0.08 µM
  relative viability: 0.763
A549; first compound 0.253 µM
  relative viability: 0.715
A549; first compound 0.8 µM
  relative viability: 0.651
A549; first compound 2.53 µM
  relative viability: 0.81
A549; first compound 8 µM
  relative viability: 0.593
NCI-H1703; first compound 0.08 µM
  relative viability: 0.688
NCI-H1703; first compound 0.8 µM
  relative viability: 0.495
NCI-H1703; first compound 2.53 µM
  relative viability: 0.683
NCI-H1703; first compound 8 µM
  relative viability: 0.587
NCI-H1299; first compound 0.08 µM
  relative viability: 0.939
NCI-H1299; first compound 0.253 µM
  relative viability: 0.932
NCI-H1299; first compound 0.8 µM
  relative viability: 0.967
NCI-H1299; first compound 2.53 µM
  relative viability: 0.853
NCI-H1299; first compound 8 µM
  relative viability: 0.927
EBC-1; first compound 0.08 µM
  relative viability: 0.179
EBC-1; first compound 0.253 µM
  relative viability: 0.184
EBC-1; first compound 0.8 µM
  relative viability: 0.225
EBC-1; first compound 2.53 µM
  relative viability: 0.179
EBC-1; first compound 8 µM
  relative viability: 0.211
NCI-H520; first compound 0.08 µM
  relative viability: 0.607
NCI-H520; first compound 0.253 µM
  relative viability: 0.841
NCI-H520; first compound 0.8 µM
  relative viability: 0.673
NCI-H520; first compound 2.53 µM
  relative viability: 0.706
NCI-H520; first compound 8 µM
  relative viability: 0.651
IA-LM; first compound 0.08 µM
  relative viability: 0.956
IA-LM; first compound 0.253 µM
  relative viability: 1.09
IA-LM; first compound 8 µM
  relative viability: 0.504
NCI-H1651; first compound 0.08 µM
  relative viability: 0.793
NCI-H1651; first compound 0.253 µM
  relative viability: 0.882
NCI-H1651; first compound 0.8 µM
  relative viability: 0.852
NCI-H1651; first compound 2.53 µM
  relative viability: 0.731
NCI-H1651; first compound 8 µM
  relative viability: 0.889
Calu-6; first compound 0.08 µM
  relative viability: 0.816
Calu-6; first compound 0.253 µM
  relative viability: 0.824
Calu-6; first compound 0.8 µM
  relative viability: 0.711
Calu-6; first compound 2.53 µM
  relative viability: 0.623
Calu-6; first compound 8 µM
  relative viability: 0.761

## C=C1C(=O)O[C@@H](CCCCCCCC)[C@@H]1C(=O)O [C-75] + C[C@]1(O)C[C@@H](c2nc(-c3ccc4ccc(-c5ccccc5)nc4c3)c3c(N)nccn32)C1 [Linsitinib] (partner 1 µM)
RERF-LC-KJ; first compound 0.08 µM
  relative viability: 0.912
RERF-LC-KJ; first compound 0.253 µM
  relative viability: 0.994
RERF-LC-KJ; first compound 0.8 µM
  relative viability: 0.827
RERF-LC-KJ; first compound 2.53 µM
  relative viability: 0.739
RERF-LC-KJ; first compound 8 µM
  relative viability: 0.971
A549; first compound 0.08 µM
  relative viability: 0.526
A549; first compound 0.253 µM
  relative viability: 0.753
A549; first compound 0.8 µM
  relative viability: 0.549
A549; first compound 2.53 µM
  relative viability: 0.37
A549; first compound 8 µM
  relative viability: 0.628
NCI-H1703; first compound 0.08 µM
  relative viability: 0.752
NCI-H1703; first compound 0.253 µM
  relative viability: 0.591
NCI-H1703; first compound 0.8 µM
  relative viability: 0.672
NCI-H1703; first compound 2.53 µM
  relative viability: 0.457
NCI-H1703; first compound 8 µM
  relative viability: 0.632
NCI-H1299; first compound 0.08 µM
  relative viability: 1.01
NCI-H1299; first compound 0.253 µM
  relative viability: 0.908
NCI-H1299; first compound 0.8 µM
  relative viability: 1.05
NCI-H1299; first compound 2.53 µM
  relative viability: 0.814
NCI-H1299; first compound 8 µM
  relative viability: 1.06
EBC-1; first compound 0.08 µM
  relative viability: 0.878
EBC-1; first compound 0.253 µM
  relative viability: 1.05
EBC-1; first compound 0.8 µM
  relative viability: 0.82
EBC-1; first compound 2.53 µM
  relative viability: 0.821
EBC-1; first compound 8 µM
  relative viability: 0.734
NCI-H520; first compound 0.08 µM
  relative viability: 1.1
NCI-H520; first compound 0.253 µM
  relative viability: 1.28
NCI-H520; first compound 0.8 µM
  relative viability: 0.904
NCI-H520; first compound 2.53 µM
  relative viability: 0.906
NCI-H520; first compound 8 µM
  relative viability: 0.825
IA-LM; first compound 0.08 µM
  relative viability: 0.682
IA-LM; first compound 0.253 µM
  relative viability: 0.644
IA-LM; first compound 0.8 µM
  relative viability: 0.53
IA-LM; first compound 2.53 µM
  relative viability: 0.556
IA-LM; first compound 8 µM
  relative viability: 0.53
NCI-H1651; first compound 0.08 µM
  relative viability: 1.06
NCI-H1651; first compound 0.253 µM
  relative viability: 1.07
NCI-H1651; first compound 0.8 µM
  relative viability: 1.08
NCI-H1651; first compound 2.53 µM
  relative viability: 0.975
NCI-H1651; first compound 8 µM
  relative viability: 0.964
Calu-6; first compound 0.08 µM
  relative viability: 0.902
Calu-6; first compound 0.253 µM
  relative viability: 0.941
Calu-6; first compound 0.8 µM
  relative viability: 0.905
Calu-6; first compound 2.53 µM
  relative viability: 0.916
Calu-6; first compound 8 µM
  relative viability: 0.724
